{
  "source": "ChEMBL document CHEMBL1130719",
  "about": "“Synthesis of 6(alpha, beta)-aminocholestanols as ergosterol biosynthesis inhibitors” (Bioorg Med Chem Lett, 1998)",
  "assay_type_in_all_cases": "functional, organism-based",
  "key": {"Candida albicans [1]": {"test_system": "Candida albicans", "experiment": "Compound was tested for growth inhibition against Candida albicans (CIP 1180.79); call rule not given here"}, "Saccharomyces cerevisiae [2]": {"test_system": "Saccharomyces cerevisiae", "experiment": "Compound was tested for growth inhibition against Saccharomyces cerevisiae (ATCC 28383)"}, "Saccharomyces cerevisiae [3]": {"test_system": "Saccharomyces cerevisiae", "experiment": "Compound was tested for growth inhibition against Saccharomyces cerevisiae (ATCC 28383); Inactive over 250 uM"}, "Candida albicans [4]": {"test_system": "Candida albicans", "experiment": "Compound was tested for growth inhibition against Candida albicans (CIP 1180.79); Inactive over 250 uM"}, "Saccharomyces cerevisiae [5]": {"test_system": "Saccharomyces cerevisiae", "experiment": "Compound was tested for growth inhibition against Saccharomyces cerevisiae (ATCC 28383); Slow development (>80-<100 uM)"}, "Candida albicans [6]": {"test_system": "Candida albicans", "experiment": "Compound was tested for growth inhibition against Candida albicans (CIP 1180.79); Slow development (>80-<100 uM)"}},
  "data": [
    {"smiles": "CC(C)CCC[C@@H](C)C1CC[C@H]2[C@@H]3C[C@H](N)[C@H]4C[C@@H](O)CC[C@]4(C)[C@H]3CC[C@]12C", "note": "(some centres not stated)", "values": [
      {"measurement": "IC50", "setting": "Candida albicans [1]", "result": "< 31", "unit": "µM"},
      {"measurement": "IC50", "setting": "Saccharomyces cerevisiae [2]", "result": "< 15", "unit": "µM"}
    ]},
    {"smiles": "CC(C)CCC[C@@H](C)C1CC[C@H]2[C@@H]3C[C@H]([N+](=O)[O-])[C@H]4C[C@@H](O)CC[C@]4(C)[C@H]3CC[C@]12C", "note": "(some centres not stated)", "values": [
      {"measurement": "IC50", "setting": "Saccharomyces cerevisiae [3]", "result": "Not Active"},
      {"measurement": "IC50", "setting": "Candida albicans [4]", "result": "Not Active"}
    ]},
    {"smiles": "CC(=O)N[C@H]1C[C@@H]2[C@H](CC[C@]3(C)C([C@H](C)CCCC(C)C)CC[C@@H]23)[C@@]2(C)CC[C@H](O)C[C@H]12", "note": "(some centres not stated)", "values": [
      {"measurement": "IC50", "setting": "Saccharomyces cerevisiae [5]", "result": "> 80", "unit": "µM"},
      {"measurement": "IC50", "setting": "Candida albicans [6]", "result": "> 80", "unit": "µM"}
    ]},
    {"smiles": "CC(=O)N[C@@H]1C[C@@H]2[C@H](CC[C@]3(C)C([C@H](C)CCCC(C)C)CC[C@@H]23)[C@@]2(C)CC[C@H](O)C[C@H]12", "note": "(some centres not stated)", "values": [
      {"measurement": "IC50", "setting": "Saccharomyces cerevisiae [5]", "result": "> 80", "unit": "µM"},
      {"measurement": "IC50", "setting": "Candida albicans [6]", "result": "> 80", "unit": "µM"}
    ]},
    {"smiles": "CC(C)CCC[C@@H](C)C1CC[C@H]2[C@@H]3C[C@@H](N)C4C[C@@H](O)CC[C@]4(C)[C@H]3CC[C@]12C", "note": "(some centres not stated)", "values": [
      {"measurement": "IC50", "setting": "Candida albicans [1]", "result": "< 7", "unit": "µM"},
      {"measurement": "IC50", "setting": "Saccharomyces cerevisiae [2]", "result": "< 15", "unit": "µM"}
    ]},
    {"smiles": "CC(C)CCC[C@@H](C)C1CC[C@H]2[C@@H]3C[C@@H]([N+](=O)[O-])[C@H]4C[C@@H](O)CC[C@]4(C)[C@H]3CC[C@]12C", "note": "(some centres not stated)", "values": [
      {"measurement": "IC50", "setting": "Saccharomyces cerevisiae [3]", "result": "Not Active"},
      {"measurement": "IC50", "setting": "Candida albicans [4]", "result": "Not Active"}
    ]}
  ]
}
